Patent US20180311342A1, “IMMUNOSTIMULATING AGENT” (AJINOMOTO CO., INC., priority 2017, published 2018)

How the values were obtained:
Type in all cases: in vivo, BALB/c mice
[1] = tested on: anti-OVA-specific IgG1 subclass antibody; assay: Adjuvant activity test: anti-OVA-specific IgG1 subclass antibody in serum of OVA-immunized mice (ELISA); conditions: after secondary immunization, serum 2 weeks later; OVA 5 μg + compound 0.256 μmol in 5% αCD-added saline (Addavax mixed with saline at 1:1), dorsal-subcutaneous; compared to OVA single administration group
Description: (§1) 8-Week-old female BALB/c mice were divided into groups (N=6), and each group was primarily immunized by dorsal-subcutaneous administration of (1) ovalbumin (OVA) (5 μg) dissolved in saline as an antigen (OVA single administration group), (2) OVA 5 μg and Addavax™ (mixed with saline at 1:1) dissolved in saline (Addavax™ administration group) as positive control adjuvant, (3) OVA 5 μg and SZ137 0.256 μmol dissolved or dispersed in 5% α-cyclodextrin (hereinafter to be simply referred to as αCD)-added saline (SZ137 administration group), (4) OVA (5 μg) and SZ138 (0.256 μmol) dissolved or dispersed in 5% αCD-added saline (SZ138 administration group), (5) OVA (5 μg) and SZ142 (0.256 μmol) dissolved or dispersed in 5% αCD-added saline (SZ142 administration group), (6) OVA (5 μg) and SZ144 (0.256 μmol) dissolved or dispersed in 5% αCD-added saline (SZ144 administration group), (7) OVA (5 μg) and SZ145 (0.256 μmol) dissolved or dispersed in 5% αCD-added saline (SZ145 administration group), (8) OVA (5 μg) and SZ146 (0.256 μmol) dissolved or dispersed in 5% αCD-added saline (SZ146 administration group), (9) OVA (5 μg) and SZ147 (0.256 μmol) dissolved or dispersed in 5% αCD-added saline (SZ147 administration group), (10) OVA (5 μg) and SZ148 (0.256 μmol) dissolved or dispersed in 5% αCD-added saline (SZ148 administration group), each per mouse. Two week later, the secondary immunization was carried out by dorsal-subcutaneous administration of solutions or dispersions similar to those of the above-mentioned (1)-(10) again. Two weeks from the secondary immunization, the whole blood was extracted under anesthesia, and the obtained serum sample was measured for anti-OVA-specific IgG1 subclass antibody, anti-OVA-specific IgG2a subclass antibody, and anti-OVA-specific IgE antibody.
(§2) The measurement method of the anti-OVA-specific IgG1 subclass antibody and anti-OVA-specific IgG2a subclass antibody in Experimental Example 1 and the following Experimental Examples 2-10 is as follows.
(§3) To a 96 well plate was added 5 μg/ml OVA at 100 µl/well, and the mixture was incubated at 4° C. overnight. After incubation, the mixture was washed three times with 200 μl of PBS-T (PBS (phosphate buffered saline)+0.05% (v/v) Tween 20) per well, and blocked with 100 μl of 5% FCS (fetal calf serum)/PBS solution per well at room temperature for 1-2 hr. Thereafter, the mixture was washed three times with PBS-T (200 μl/well), a diluted serum sample (100 l/well) or the same amount of 5% FCS/PBS solution as a control was added, and the mixture was incubated at 37° C. for 1 hr. To calculate concentration of the antibody, the standard of an anti-OVA-specific IgG1 subclass antibody diluted with 2% FCS/PBS solution was added at 100 ng/ml, 50 ng/ml, 25 ng/ml, 12.5 ng/ml, 6.25 ng/ml, 3.125 ng/ml, 1.56 ng/ml, 0.781 ng/ml, 0.391 ng/ml, 0.195 ng/ml, 0.098 ng/ml, 0 ng/ml, per 1 well. When an anti-OVA-specific IgG2a subclass antibody was measured, the standard of an anti-OVA-specific IgG2a subclass antibody was added at 50 ng/ml, 25 ng/ml, 12.5 ng/ml, 6.25 ng/ml, 3.125 ng/ml, 1.56 ng/ml, 0.781 ng/ml, 0.391 ng/ml, 0.195 ng/ml, 0.098 ng/ml, 0.049 ng/ml, 0 ng/ml, per 1 well. Thereafter, similar to the samples, the mixture was washed five times with PBS-T (200 μl/well), a diluted biotinylated anti-mouse IgG1 antibody and IgG2a antibody were added (100 μl/well), and the mixture was incubated at 37° C. for 45 min. Thereafter, the mixture was washed five times with PBS-T (200 μl/well), a diluted anti-biotin-HRP antibody was added (100 μl/well), and the mixture was incubated at 37° C. for another 30 min. Thereafter, the mixture was washed five times with PBS-T (200 μl/well), TMB substrate solution was added (100 μl/well), and the mixture was incubated at room temperature for 10-15 min. Thereafter, a reaction quenching liquid (2N sulfuric acid solution) was added (50 l/well) to discontinue a color developing reaction, and the absorbance (OD Value=450 nm) was measured by a microplate reader. […]

[2] = tested on: anti-OVA-specific IgG2a subclass antibody; assay: Adjuvant activity test: anti-OVA-specific IgG2a subclass antibody in serum of OVA-immunized mice (ELISA); conditions: after secondary immunization, serum 2 weeks later; OVA 5 μg + compound 0.256 μmol in 5% αCD-added saline (Addavax mixed with saline at 1:1), dorsal-subcutaneous; compared to OVA single administration group
Description: as §1, §2, §3

[3] = tested on: anti-OVA-specific IgE antibody; assay: Allergy inducing activity test: anti-OVA-specific IgE antibody in serum of OVA-immunized mice (DS mouse IgE ELISA (OVA) kit)
Description: as §1
The measurement method of the anti-OVA-specific IgE antibody in Experimental Example 1 and the following Experimental Examples 2-5, 8-10 is as follows.
DS mouse IgE ELISA (OVA) kit manufactured by DS Pharma Biomedical Co., Ltd. was used. The protocol is briefly shown below.
The serum sample and a standard reagent for drawing an analytical curve are diluted with a buffer and, after stirring, left standing at room temperature for 10 min. The sample and the standard solution are added to a plate bound with an IgE capture antibody in advance and, after stirring, the mixture is left standing at room temperature for 60 min. The mixture is washed three times with wash, HRP-labeled OVA is added, and the mixture is left standing at room temperature for 30 min. The mixture is washed three times with wash, a substrate solution is added, and the mixture is left standing in dark at room temperature for 30 min. A reaction quenching liquid is added, the mixture is stirred, and the absorbance (OD Value=450 nm) is immediately measured.
The standard used is one attached to the kit, the standard curve is drawn from the measured OD Value, and the concentration is calculated. […]

CCCCCCCCCCCCCCCCCC(=O)N[C@@H](CCCNC(=N)N)C(=O)NCCCCCCCCCCCC.Cl [SZ137, N-[(1S)-1-(dodecylcarbamoyl)-4-guanidino-butyl]octadecanamide hydrochloride]
anti-OVA-specific IgG1 subclass antibody production [1]: significantly increased | anti-OVA-specific IgG2a subclass antibody production [2]: significantly increased | anti-OVA-specific IgE antibody production ([3]; after secondary immunization, OVA 5 μg + compound 0.256 μmol in 5% αCD-added saline (Addavax mixed with saline at 1:1), dorsal-subcutaneous, compared to OVA single administration group): an increase in the anti-OVA-specific IgE antibody production was not observed | allergy inducing activity as compared to Addavax ([3]; conclusion from IgE after secondary immunization, compound in 5% αCD-added saline): may have a lower allergy inducing activity
